The record followed here is patent US6911446B2, “Methods of modulating serine/threonine protein kinase function with quinazoline-based compounds” (Sugen, Inc., priority 1997, dated 2005).

By IC50 is commonly meant the concentration at which inhibition is half-maximal.

For the assay, the system named is 3T3/H-Ras (NIH 3T3 clone 7 cells expressing genomic fragment of oncogenic H-Ras). As to the kind of experiment: Growth of NIH 3T3 cells over expressing H-Ras (SRB). It counts as cell-based. To be noted: Mus musculus, NIH3T3, 72 h, growth of 3T3/H-Ras cells, 3 days with compound. As to the method: The following assay measures growth rates for NIH-3T3 cells expressing RAS. The purpose of the assay is to determine the effects of compounds on the growth of NIH 3T3 cells over expressing H-Ras.
• 96-well flat bottom sterile plates • 96-well round bottom sterile plates • sterile 25 mL or 100 mL reservoir • pipets, multi-channel pipetman • sterile pipet tips • sterile 15 mL and 50 mL tubes Reagents • 0.4% SRB in 1% acetic acid • 10 mM Tris base • 10% TCA • 1% acetic acid • sterile DMSO (Sigma) • compound in DMSO (100 mM or less stock solution) • Trypsin-EDTA (GIBCO BRL) Cell Line: 3T3/H-Ras (NIH 3T3 clone 7 cells expressing genomic fragment of oncogenic H-Ras).
The cells can be constructed using the following protocol: • 1. Subclone a gene fragment encoding Ras into a commercially available vector that will stably transfect NIH-3T3 cells. The fragment is from the genomic transforming allele of cHa-ras. • 2. Transfect NIH-3T3 cells with the subcloned vector by a calcium phosphate method. Select cells expressing the Ras construct in 2% serum in DMEM. Visible foci are observed after 2 weeks. Pool the transformed cells to generate a stably transformed cell line. Growth Medium: 2% calf serum/DMEM+2 mM glutamine, Pen/Strep Protocol: Day 0: Cell Plating:
This part of assay is carried out in a laminar flow hood. • 1. Trypsinize cells. Transfer 200 μL of cell suspension to 10 mL of isotone. Count cells with a Coulter Counter. • 2. Dilute cells in growth medium to 60,000 cell/mL. Transfer 100 μL of cells to each well in a 96-well flat bottom plate to give 6000 cells/well. • 3. Use half of plate (4 rows) for each comound and quadruplicate wells for each compound concentration, and a set of 4 wells for medium control. • 4. Gently shake plates to allow for uniform attachment of the cells. • 5. Incubate the plates at 37° C. in a 10% CO2 incubator. Day 1: Addition of Compound:
This part of assay is carried out in a laminar flow hood. • 1. In a 96-well round bottom plate, add 120 μL of growth medium containing 2×final % DMSO found in highest screening concentration of compound to columns 1 to 11. For example, if the highest concentration is […], and this is made from a 100 mM stock, 1×DMSO is 0.1%, so 2×DMSO is 0.2%. This plate is used to titrate out the compound, 4 rows per compound. • 2. In a sterile 15 mL tube, make a 2×solution of the highest screening concentration of compound in growth medium plus 2×DMSO. 1 mL per cell line is needed. The starting concentration of the compound is usually 100 μM but this concentration may vary depending upon the solubility of the compound. • 3. Transfer 240 μL of the 2×starting compound solution to qudruplicate wells in column 12 of the 96-well round bottom plate. Do 1:2 serial dilutions across the plate from right to left by transferring […] from column 12 to column 11, column 11 to 10 and so on through column 2. Transfer 100 μL of compound dilutions, and 100 μL of medium in column 1, onto 100 μL medium on cells in corresponding wells of 96-well flat bottom plate. Total volume per well should be 200 μL. • 4. Return the plate to the incubator and incubate for 3 days. Day 4: Development of Assay
This party of assay is carried out on the bench. • 1. Aspirate or pour off medium. Add 200 μL cold 10% TCA to each well to fix cells. Incubate plate for at least 60 min. at 4° C. • 2. Discard TCA and rinse wells 5 times with tap water. Dry plates upside down on paper towels. • 3. Stain cells with 100 μL/well 0.4% SRB for 10 min. • 4. Pour of SRB and rinse wells 5 times with 1% acetic acid. Dry plates completely upside down on paper towels. • 5. Solubilize dye with 100 μL/well 10 mM Tris base for 5-10 min. on shaker. • 6. Read plates on Dynatech ELISA Plate REader at 570 nm with reference at 630 nm.
As to `Nc1nc(N)c2c(Oc3ccccc3)cccc2n1` [Compound A-1, 2,4-Diamino-5-phenoxyquinazoline], the IC50 worked out at 0.85 µM.
As for `COc1ccc(Oc2cccc3nc(N)nc(N)c23)cc1` [Compound A-6, 2,4-Diamino-5-(4-methoxyphenoxy)quinazoline], the figure is greater than 100 µM; as for `Nc1nc(N)c2c(Oc3ccc(F)cc3)cccc2n1` [Compound A-7, 2,4-Diamino-5-(4-fluorophenoxy)quinazoline], greater than 100 µM; as for `CC(C)(C)c1ccc(Oc2cccc3nc(N)nc(N)c23)cc1` [Compound A-8, 2,4-Diamino-5-(4-tert-butylphenoxy)quinazoline], 22.3 µM.
As for `Cc1ccc(Oc2cccc3nc(N)nc(N)c23)cc1` [Compound A-9, 2,4-Diamino-5-(4-methylphenoxy)quinazoline], the figure is 20.4 µM; as for `COc1ccccc1Oc1cccc2nc(N)nc(N)c12` [Compound A-22, 2,4-Diamino-5-(2-methoxyphenoxy)quinazoline], 0.4 µM; as for `COc1cccc(Oc2cccc3nc(N)nc(N)c23)c1` [Compound A-23, 2,4-Diamino-5-(3-methoxyphenoxy)quinazoline], 0.6 µM.
`Nc1ncnc2cccc(Oc3ccc(OCc4ccccc4)cc3)c12` [Compound A-28, 4-Amino-5-(4-benzyloxyphenoxy)quinazoline]: the IC50 is 6 µM.
